According to patent publication US7033597B2, “Intracellular delivery of biological effectors” (Université de Lausanne, priority 2000, dated 2006):
Where no end group is shown, it is not given here.

Key:
Type in all cases: cell-based
βTC-3 cells [1] = test: Immunocytochemistry and fluorescence studies of oximes; settings: fluorescence studies
Description: Single phages isolated according to the enrichment scheme above were amplified. The phage peptides and one of oximes 1–6 were added and incubated for 24 hours with cells in culture medium. Medium was then washed off and cells fixed in cold methanol-acetone (1:1) for 5 minutes. Antibodies directed against the phage capsid or against biotin (peptides) were used with a fluorescein-conjugated (phage) or Texas Red labeled (peptides) secondary antibody. Classical fluorescence microscopic studies and confocal microscopic assays were performed.
Oximes 1–3 were first tested for their entry into βTC-3 cells. […] The superiority of oxime 3 may be due to the flexibility of the PEG spacer, which increases binding to the receptors on the cells.
Oximes 4–6, which are similar to oxime 3, were then synthesized and assayed for binding avidity and entry efficiency.

βTC-3 cell line = test: Panning of phage display library on βTC-3 cells, occurrence of recovered phages
Description: (§1) A library of 3×10^8 independent phages displaying random 15-mer epitopes at the surface of the capsids was generated using standard procedures (e.g., in T7 415 or the T7 413b phage, Novagen). See Smith and Scott, Methods Enzymol. 217:228 (1993). Phages were amplified then purified by polyethylene glycol (PEG) precipitation and finally resuspended at a concentration of 10^10 infective particles per μl in Tris-EDTA buffer (10:1 mM, TE) as described (by Smith and Scott, supra). Phages (10^12) were added to cells in culture medium for 1 to 24 hours. Longer incubation times were preferred to favor isolation of phages that escaped proteolytic degradation in endocytotic vesicles. Following binding and internalization, cells were washed and non-internalized phages were destroyed by digestion with subtilisin (3 mg/ml) (44). Following extensive washing, internalized phages were then recovered by lysing cells in a buffer containing 2% deoxycholate, 10 mM Tris-HC1 and 2mM EDTA, pH 8.0. Recovered phages were finally amplified in E. coli cells (XL-1-Blue) and purified as described above. This preparation of selected phages was then used for a second round of panning. Three to five sequential rounds were performed to obtain enrichment of specific phage-bearing peptide sequences.
The pancreatic β-cell line βTC-3 was panned with the phage display library mentioned herein. […] Panning experiments using βTC-3 cells were performed with 10^9 phages used at each step of the enrichment procedure. The number of phages recovered at 0 ° C.
The occurrence of phages recovered after three steps of panning in the βTC-3 cell line is seen in Table 2.

5 different cell lines = test: Specificity of phage uptake across the cell lines; settings: βTC-3 vs HeLa, WiDr, HepG2, A549
Description: as §1, with “sequences. […]” for “sequences.”

βTC-3 cells [2] = test: Titration of phage P1 incubated with βTC-3 cells
Description: as §1
The ratio of input/recovered phages is also shown.

HepG2 = test: Specificity of phage uptake, internalized and recovered phages; settings: 10^8 phages incubated 16 hours
Description: as §1
(§2) Determination of the specificity of uptake was performed by titrating the number of recovered phages in 5 different cell lines.

βTC-3 = test: as above
Description: as §1, §2

A549 = test: as above; settings: 10^8 phages incubated 16 hours
Description: as §1, §2

HeLa = test: as above; settings: 10^8 phages incubated 16 hours
Description: as §1, §2

WiDr = test: as above; settings: 10^8 phages incubated 16 hours
Description: as §1, §2

Oxime 3: tetraoxime with four copies of RRTK, two-unit PEG spacer between peptide and core 1, FITC reporter (RRTK-OH; not fully specified (N-terminus, bridges); also: tetraoxime: four RRTK copies joined by thioether to Cys of branched trilysine core 1, core carries aminooxyacetyl-Lys(FITC) via oxime bond)
binding to receptors on the cell surface (βTC-3 cells [1]): clearly bound to the receptors on the surface of βTC-3 cells

RKLR [Oxime P6]
occurrence of phages recovered after three steps of panning (βTC-3 cell line): 17%

RRPK [Oxime P66]
occurrence of phages recovered after three steps of panning (βTC-3 cell line): 5.5%

RRTK [Oxime P1]
uptake by βTC-3 cells relative to any other cell line tested (5 different cell lines): 10,000 to 1,000,000 fold | % Recovered (βTC-3 cells [2]; incubation 1 h): 0.01% | initial phage input recovered (βTC-3 cells [2]; titration experiments): ≤ 10% | occurrence of phages recovered after three steps of panning (βTC-3 cell line): 61% | Phages recovered (HepG2): <10 | efficiency of internalization (βTC-3; phage experiments, βTC-3 cells): low | uptake by cells (βTC-3; phage experiments, βTC-3 cells): taken up specifically by βTC-3 cells via receptor-mediated endocytosis | Phages recovered (βTC-3; βTC-3, 10^8 phages incubated 16 hours): 1 × 10^7 | Phages recovered (A549): 10^3 | Phages recovered (HeLa): <1 × 10^2 | Phages recovered (WiDr): 2 × 10^2
